Key:
Assay type in all cases: cell-based
human TLR8 = target: T1, human TLR8 (Homo sapiens, UniProt Q9NR97); experiment: TLR8 inhibition reporter assay (HEK-Blue cells, SEAP reporter, R848 stimulation); conditions: HEK-Blue cells overexpressing human TLR8, SEAP reporter, R848 15.9 μM
T1 construct: host or cells: HEK-Blue cells
T1 sequence (Q9NR97 27-1041): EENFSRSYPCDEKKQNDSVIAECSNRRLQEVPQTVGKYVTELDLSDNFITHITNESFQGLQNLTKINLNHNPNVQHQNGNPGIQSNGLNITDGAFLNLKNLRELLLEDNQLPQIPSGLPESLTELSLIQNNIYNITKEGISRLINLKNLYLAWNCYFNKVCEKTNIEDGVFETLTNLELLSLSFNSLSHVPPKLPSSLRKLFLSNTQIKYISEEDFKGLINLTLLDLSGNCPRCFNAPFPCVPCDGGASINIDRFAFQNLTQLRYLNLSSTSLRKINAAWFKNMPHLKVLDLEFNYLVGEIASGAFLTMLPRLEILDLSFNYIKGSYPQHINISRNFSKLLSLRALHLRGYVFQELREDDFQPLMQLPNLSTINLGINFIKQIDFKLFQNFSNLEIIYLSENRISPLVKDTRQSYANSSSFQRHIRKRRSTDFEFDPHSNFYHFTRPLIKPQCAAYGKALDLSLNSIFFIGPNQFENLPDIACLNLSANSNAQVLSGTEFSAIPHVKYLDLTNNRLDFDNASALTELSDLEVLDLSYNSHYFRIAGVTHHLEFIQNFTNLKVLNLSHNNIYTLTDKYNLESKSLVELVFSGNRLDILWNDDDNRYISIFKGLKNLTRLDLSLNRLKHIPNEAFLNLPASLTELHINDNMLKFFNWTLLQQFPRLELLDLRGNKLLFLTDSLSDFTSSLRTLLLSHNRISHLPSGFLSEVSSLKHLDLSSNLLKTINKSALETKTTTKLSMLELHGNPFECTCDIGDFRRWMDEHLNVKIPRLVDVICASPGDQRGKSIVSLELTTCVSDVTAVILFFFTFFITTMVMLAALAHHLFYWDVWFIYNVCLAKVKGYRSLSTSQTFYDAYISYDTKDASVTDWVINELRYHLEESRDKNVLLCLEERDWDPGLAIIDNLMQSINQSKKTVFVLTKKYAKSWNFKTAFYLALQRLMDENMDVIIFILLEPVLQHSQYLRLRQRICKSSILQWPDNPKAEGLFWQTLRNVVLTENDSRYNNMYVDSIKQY
Outline: (§1)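 Percent inhibition of agonist-induced SEAP, set between agonist+DMSO wells and known-inhibitor wells, after 22 h at 37° C. Compounds (0.05 nM-50 μM final) were added 30 min at room temperature before ligand: gardiquimod 7.5 μM for TLR7, R848 15.9 μM for TLR8, ODN2006 5 nM for TLR9. Human receptors overexpressed in HEK-Blue reporter cells.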

human TLR7 = target: T2, human TLR7 (Homo sapiens, UniProt Q9NYK1); experiment: TLR7 inhibition reporter assay (HEK-Blue cells, SEAP reporter, gardiquimod stimulation); conditions: HEK-Blue cells overexpressing human TLR7, SEAP reporter, gardiquimod 7.5 μM
T2 construct: host or cells: HEK-Blue cells
T2 sequence (Q9NYK1 27-1049): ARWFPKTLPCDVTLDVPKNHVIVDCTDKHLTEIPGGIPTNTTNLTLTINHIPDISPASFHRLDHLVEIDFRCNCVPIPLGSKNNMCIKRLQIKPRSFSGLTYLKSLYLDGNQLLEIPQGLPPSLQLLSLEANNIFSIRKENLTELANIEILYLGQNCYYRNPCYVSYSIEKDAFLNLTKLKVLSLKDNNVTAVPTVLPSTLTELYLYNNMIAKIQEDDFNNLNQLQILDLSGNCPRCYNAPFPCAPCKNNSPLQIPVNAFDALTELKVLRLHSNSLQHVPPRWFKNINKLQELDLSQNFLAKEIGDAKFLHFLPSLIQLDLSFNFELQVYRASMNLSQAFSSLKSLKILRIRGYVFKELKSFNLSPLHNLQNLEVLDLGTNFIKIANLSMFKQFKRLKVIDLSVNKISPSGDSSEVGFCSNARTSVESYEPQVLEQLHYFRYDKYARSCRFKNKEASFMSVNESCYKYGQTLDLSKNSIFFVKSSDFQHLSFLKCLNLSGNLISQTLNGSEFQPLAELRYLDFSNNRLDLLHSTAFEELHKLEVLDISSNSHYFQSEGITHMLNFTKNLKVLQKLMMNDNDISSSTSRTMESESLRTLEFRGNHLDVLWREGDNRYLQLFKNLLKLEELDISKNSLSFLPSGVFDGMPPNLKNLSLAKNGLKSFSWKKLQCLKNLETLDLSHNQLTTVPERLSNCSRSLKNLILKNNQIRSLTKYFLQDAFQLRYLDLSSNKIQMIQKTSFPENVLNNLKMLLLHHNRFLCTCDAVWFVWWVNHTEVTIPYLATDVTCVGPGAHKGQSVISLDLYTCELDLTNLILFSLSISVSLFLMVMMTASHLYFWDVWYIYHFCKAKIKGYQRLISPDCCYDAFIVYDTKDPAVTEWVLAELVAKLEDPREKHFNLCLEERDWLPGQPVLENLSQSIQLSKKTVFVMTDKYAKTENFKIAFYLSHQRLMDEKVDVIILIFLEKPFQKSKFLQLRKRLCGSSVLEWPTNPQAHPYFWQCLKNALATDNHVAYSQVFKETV
Outline: as §1

human TLR9 = target: T3, human TLR9 (Homo sapiens, UniProt Q9NR96); experiment: TLR9 inhibition reporter assay (HEK-Blue cells, SEAP reporter, ODN2006 stimulation); conditions: HEK-Blue cells overexpressing human TLR9, SEAP reporter, ODN2006 5 nM
T3 construct: host or cells: HEK-Blue cells
T3 sequence (Q9NR96 26-1032): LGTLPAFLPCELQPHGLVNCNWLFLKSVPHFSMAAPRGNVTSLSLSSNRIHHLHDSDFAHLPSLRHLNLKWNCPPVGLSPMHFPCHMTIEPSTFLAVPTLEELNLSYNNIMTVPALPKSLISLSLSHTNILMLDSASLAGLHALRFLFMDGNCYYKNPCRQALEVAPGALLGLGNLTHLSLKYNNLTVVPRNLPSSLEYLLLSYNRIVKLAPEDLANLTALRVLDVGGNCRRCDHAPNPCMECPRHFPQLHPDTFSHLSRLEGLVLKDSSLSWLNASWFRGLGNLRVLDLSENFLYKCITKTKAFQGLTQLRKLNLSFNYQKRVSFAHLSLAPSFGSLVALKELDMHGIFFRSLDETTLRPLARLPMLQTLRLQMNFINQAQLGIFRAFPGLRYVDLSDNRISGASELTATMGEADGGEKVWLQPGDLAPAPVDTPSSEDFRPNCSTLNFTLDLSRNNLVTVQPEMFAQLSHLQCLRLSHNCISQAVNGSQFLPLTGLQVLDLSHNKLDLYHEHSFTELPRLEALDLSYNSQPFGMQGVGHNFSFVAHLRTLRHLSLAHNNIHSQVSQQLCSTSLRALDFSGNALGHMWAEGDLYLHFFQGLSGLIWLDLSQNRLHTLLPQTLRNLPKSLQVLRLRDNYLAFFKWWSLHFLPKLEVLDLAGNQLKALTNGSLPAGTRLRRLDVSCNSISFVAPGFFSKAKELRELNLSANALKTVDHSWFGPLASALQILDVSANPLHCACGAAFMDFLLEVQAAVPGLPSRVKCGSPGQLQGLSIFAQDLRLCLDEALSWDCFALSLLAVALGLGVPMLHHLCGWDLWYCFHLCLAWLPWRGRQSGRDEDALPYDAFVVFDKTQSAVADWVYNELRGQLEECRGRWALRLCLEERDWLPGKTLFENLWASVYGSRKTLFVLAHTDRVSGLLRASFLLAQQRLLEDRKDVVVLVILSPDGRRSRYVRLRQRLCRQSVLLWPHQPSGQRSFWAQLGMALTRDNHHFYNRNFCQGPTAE
Outline: as §1

SMILES	IC50 (human TLR8) [nM]	IC50 (human TLR7) [nM]	IC50 (human TLR9) [µM]
Cc1cc(-c2[nH]nc(C(=O)N[C@H]3CC[C@@H](NC(C)C)CC3)c2C(C)C)cn2ncnc12 [Example 85]	17.5	2.66	6.91
Cc1cc(-c2[nH]nc(C(=O)N[C@H]3CCCNC3)c2C(C)C)cn2ncnc12 [Example 54]	3.74	1.1	6.67
Cc1cc(-c2[nH]nc(C3CCC(N(C)C(=O)C4CN(C)C4)CC3)c2C(C)C)cn2ncnc12 (single isomer, unassigned) [Example 302]	14.2	9.44	> 50
Cc1cc(-c2[nH]nc(-c3ccc4c(c3)CCN(CC(C)(C)O)C4)c2C(C)C)cn2ncnc12 [Example 264]	22.9	26.8	22
CCC(CC)N[C@H]1CC[C@@H](NC(=O)c2n[nH]c(-c3cc(C)c4ncnn4c3)c2C(C)C)CC1 [Example 100]	114	78.9	6.4
Cc1cc(-c2[nH]nc(C(=O)NC3CCC(N(C)C)CC3)c2C(C)C)cn2ncnc12 (stereo not drawn) [Example 7]	6.59	7.8	5.47
Cc1cc(-c2[nH]nc(C(=O)N3CCC(N(C)C)CC3)c2C(C)C)cn2ncnc12 [Example 13]	2.03	5.04	3.33
Cc1cc(-c2[nH]nc(C(=O)N[C@H]3CC[C@H](NCC4CCCC4)CC3)c2C(C)C)cn2ncnc12 [Example 109]	27.9	6.81	6.09
Cc1cc(-c2[nH]nc(-c3ccc4cnccc4c3)c2C(C)C)cn2ncnc12 [Example 214]	0.39	1.37	10.3
COc1cc(-c2[nH]nc(-c3cnc(C4CCN(C5COC5)CC4)cn3)c2C(C)C)cn2ncnc12 [Example 385]	31.4	58.8	> 50
COc1cc(-c2[nH]nc(C(=O)N3CCCN(C)CC3)c2C(C)C)cn2ncnc12 [Example 10]	1.9	1.37	1.33
Cc1cc(-c2[nH]nc(C(=O)NC3CCN(C4COC4)CC3)c2C(C)C)cn2ncnc12 [Example 70]	1.46	0.58	6.61
Cc1cc(-c2[nH]nc(C(=O)NCC3CN(C4COC4)CCO3)c2C(C)C)cn2ncnc12 (stereo not drawn) [Example 136]	4.36	1.69	42.8
Cc1cc(-c2[nH]nc(C(=O)N[C@H]3CC[C@H](NCC4(C)COC4)CC3)c2C(C)C)cn2ncnc12 [Example 149]	98.5	108	> 50
COc1cc(-c2[nH]nc(-c3cnc(C4CCN(C)CC4)cn3)c2C(C)C)cn2ncnc12 [Example 381]	9.06	11.1	5.88
COc1cc(-c2[nH]nc(-c3ccc(C4CN(C)C4)cc3)c2C(C)C)cn2ncnc12 [Example 328]	12.8	12.9	18.8
CCN1CCc2nc(-c3n[nH]c(-c4cc(C)c5ncnn5c4)c3C(C)C)ncc2C1 [Example 249]	1.19	6.34	19.8
Cc1cc(-c2[nH]nc(C(=O)N[C@H]3CC[C@@H](NCC4CCOC4)CC3)c2C(C)C)cn2ncnc12 (stereo partly drawn) [Example 87]	11.8	1.73	7.79
Cc1cc(-c2[nH]nc(C(=O)NC3CCN(CCCC(F)(F)F)CC3)c2C(C)C)cn2ncnc12 [Example 71]	19	6.92	5.81
Cc1cc(-c2[nH]nc(C(=O)NC3CCN(CC4CCOC4)CC3)c2C(C)C)cn2ncnc12 (stereo not drawn) [Example 72]	4.75	1.23	7.22
COCCN1CCC(c2cnc(-c3n[nH]c(-c4cc(OC)c5ncnn5c4)c3C(C)C)cn2)CC1 [Example 396]	53.9	102	> 50
Cc1cc(-c2[nH]nc(C(=O)N[C@H]3CC[C@H](NC4CCOC(C)(C)C4)CC3)c2C(C)C)cn2ncnc12 (stereo partly drawn) [Example 115]	17	11.7	1.21
